Laboratory results from patent publication US20180289666A1, “FLAVONOLIGNANS FOR TREATMENT OF AUTOIMMUNE INFLAMMATORY DISEASES” (Macau University of Science and Technology, priority 2017, published 2018).
Read-outs that look alike come from different tables or passages of the source.

Experiments:
AIA rats [1] = assay: Radiological and histopathological examination of hind paws / ankle joints of AIA rats; type: in vivo, Sprague-Dawley (SD) rats
Procedure: Disease severity and progression were evaluated by measurements of both hind paw volumes with a plethysmometer chamber (Yiyan technology, Jinan, China) and body weight with a 0.1 g precision balance (Sartorius AG, Göttingen, Germany) every two or three days after arthritis induction. For evaluation the arthritic scoring, the lesions of four paws of each rat (i.e., the arthritic signs) were graded by two separate investigators with a semi-quantitative scale: 0 (normal), 4-8 (mild changes), 8-12 (moderate changes), and 12-16 (severe changes) (van Eden W., et. al., J. E. Coligan, Editor. 2001, John Wiley: New York. p. 1-11). Erythrocyte sedimentation rate (ESR) was determined with ICSH (International Council for Standardization in Hematology) selected method with little modifications at day 42. Briefly, 120 μl of blood sample was taken directly and put into 30 μl of 0.109 mol/L sodium citrate, mixed well, and then transferred into a 1.0 mm×100 mm capillary tube (West China Medical University, ChengDu, China). The tubes were held obliquely at an angle of […] and the erythrocyte sedimentation rate was recorded at 15 min. The cytokines levels including IL-1β, TNF-α, IL-17, IL-33, MMP-9, TIMP-1 and PGE2 in serum were measured using commercially available ELISA kits according to the manufacturers instructions. At the end of the experiments, rat knee images were measured (mean of three readings per knee, Meinaite digital calliper, ShangHai, China) using a IVIS Lumina XRMS Series (PerkinElmer, America) (Esser, R. E., et al., Arthritis Rheum, 1995, 38(1): p. 129-38).
For histopathological assessment, arthritic paws were collected on day 42 after X-ray check, fixed with 10% phosphate buffered saline (PBS) buffered formalin, and decalcified for 3 days in formic acid. Sections from paraffin-embedded tissue were stained with hematoxylin and eosin (H&E). The obtained plasma was stored in −70° C. for metabolomic studies. The relative organ weight ratios (such as liver index, spleen index, kidney index, lung index) were calculated by dividing the weight of each organ with the body weight.

AIA rats [2] = assay: Assessment of liver abnormality and lipid profile in AIA model; type: in vivo, Sprague-Dawley (SD) rats
Procedure: Serum ALT, AST, ALP, GGT and total bilirubin were measured by automatic biochemical analyzer (Toshiba Corporation, Tokyo, Japan). Lipids profile including TG, TC, HDL-C, LDL-C/vLDL-C and free fatty acids were measured in the serum. After animals were sacrificed, tissues of liver were fixed in 10% formalin solution, cleared in xylene, embedded in paraffin blocks from which 5 micron-thick sections were obtained. Sections were stained with H&E dye and examined for pathological changes under light microscope by a pathologist blind to the specimens.

AIA rats [3] = conditions: for ESR: day 42, read at 15 min, ± SD
AIA rats [4] = assay: Plasma metabolomics by LC-MS/MS in AIA rats; type: in vivo, Sprague-Dawley (SD) rats
Procedure: The plasma sample (200 μL) was thawed on ice for 5 min prior to sample preparation and was mixed with 200 μL of 10 mM N-ethylmaleimide (NEM) in PBS buffer solution and 1000 μL of methanol containing internal standard (I.S.) Phe-d5 in 10 ng/ml. This mixture was incubated at −20° C. for 20 min, and then centrifuged at 12000 rpm for 10 min at 4° C. The supernatant was completely dried under nitrogen flow (Pressure Blowing Concentrator, Tokyo Rikakika, Tokyo, Japan) and reconstituted with distilled water.
LC-MS/MS analysis was performed on A Waters ACQUITY UPLC coupled with a 4000 Q-TRAP mass spectrometer. Chromatographic separation was carried on a Waters X Bridge™ BEH C18 analytical column (2.5 μm, 3.0×100 mm; Waters, Torrance, Calif.) with a mobile phase composed of 0.1% formic acid water (solvent A) and methanol (solvent B) which was running in a gradient program: 0-3.0 min (0%-1% B); 3.0-10.0 min (1-3% B); 10.0-14.0 min (3-50% B); 14.0-18.0 min (50-95% B); 18.0-22.0 min (95-0% B); followed by a 3-min re-equilibration step. The injection volume was 10 μl at 4° C. and flow rate was 0.6 ml/min. Electrospray (ESI) source were used in both positive and negative ion mode. […]
The normalized data were exported and further processed by PCA and PLS-DA using a multivariate analysis package SIMCA-P software (Umea, Sweden). Model quality was evaluated based on the relevant values of R^2 and Q^2. […]

[5] = AIA rats, Silybin 200 mg/kg oral, day 42

With `COc1cc([C@H]2Oc3cc([C@H]4Oc5cc(O)cc(O)c5C(=O)[C@@H]4O)ccc3O[C@@H]2CO)ccc1O` (stereo in doubt) [Silybin] the “cartilage and joint destruction of the arthritic joints (radiographs)” value (AIA rats [1]; Silybin 100 mg/kg or 200 mg/kg, day 42) was “ameliorated”, the “infiltration of inflammatory cells, synovial hyperplasia” value (AIA rats [1]; ankle joint sections, H&E) was “diminished” and the “histological grade of representative ankle joint sections” value (AIA rats [1]; day 42, H&E, FIG. 2C (MTX; Silybin 200 mg/kg), vehicle-treated AIA grade 2/3) was 0. The “histopathological assessment of liver tissue” value (AIA rats [2]; H&E liver sections) was “preserved the normal architecture of hepatocytes with light congestion of central vein”, the “dyslipidemia (serum lipid profile)” value (AIA rats [2]; Silybin 200 mg/kg) was “successfully improved” and the ALP level (AIA rats [2]; Silybin 200 mg/kg, P<0.001) was “markedly reduced”. For the same compound, the AST level (AIA rats [2]; Silybin 200 mg/kg, P<0.05) was “markedly reduced”, the ESR (AIA rats [3]; AIA rats, Silybin 100 mg/kg oral daily) was 34.35 ± 9.25 mm and the ESR (AIA rats [3]; AIA rats, Silybin 200 mg/kg oral daily) was “significantly (P<0.001) reduced”. For the same compound, the ESR (AIA rats [3]; AIA rats, Silybin 200 mg/kg oral daily, listed as SB) was 28.09 ± 11.14 mm, the arthritis score (AIA rats [3]; [5]) was 7.60 and the paw volume (AIA rats [3]; [5]) was 3.02 mL. The “relative organ weight ratio (such as liver index, spleen index, kidney index, lung index)” value (AIA rats [3]; rat, in vivo) was “reversed changes” and the “metabolic network (plasma metabolites)” value (AIA rats [4]) was “effectively repair the metabolic network”.
